{
  "source": "patent US9758485B2",
  "about": "“Compounds for controlling arthropods” (priority 2013, dated 2017)",
  "key": {"Ctenocephalides felis [1]": {"system": "Ctenocephalides felis", "assay": "Ctenocephalides felis - oral test", "type": "in vivo", "conditions": "Ctenocephalides felis, po, 48 h; application rate 100 ppm in citrated cattle blood; adult fleas; kill after 2 days; read-out: efficacy", "procedure,_shortened": "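DMSO stock, diluted in citrated cattle blood; ~20 unfed adult fleas feed through parafilm; % kill read at day 2 (0% = none killed).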"}, "Tetranychus urticae": {"system": "Tetranychus urticae", "assay": "Tetranychus urticae - spray test, OP-resistant", "type": "in vivo", "conditions": "foliar, 144 h, application rate 100 g/ha, bean leaf discs, after 6 days, read-out: efficacy", "procedure": "Tetranychus urticae—Spray Test, OP-Resistant\nSolvent: 78.0 parts by weight of acetone and 1.5 parts by weight of dimethylformamide\n(§1) Emulsifier: alkylaryl polyglycol ether\n(§2) To produce an appropriate active ingredient formulation, 1 part by weight of active ingredient is dissolved using the specified parts by weight of solvent and made up with water containing an emulsifier concentration of 1000 ppm until the desired concentration is attained. To produce further test concentrations, the preparation is diluted with emulsifier-containing water.\nDiscs of bean leaves (Phaseolus vulgaris) infested by all stages of the greenhouse red spider mite (Tetranychus urticae) are sprayed with an active ingredient formulation of the desired concentration.\nAfter 6 days, efficacy in % is determined. 100% means that all the spider mites have been killed; 0% means that none of the spider mites have been killed."}, "[2]": {"assay": "logP determination by HPLC on a reversed-phase column (C18), EEC Directive 79/831 Annex V.A8", "type": "physicochemical"}, "Myzus persicae": {"system": "Myzus persicae", "assay": "Myzus persicae - spray test", "type": "in vivo", "conditions": "application rate 100 g/ha; Chinese cabbage leaf discs; after 6 days", "procedure": "Myzus persicae—Spray Test\nSolvent: 78 parts by weight of acetone and 1.5 parts by weight of dimethylformamide\nas §1, §2\nDiscs of Chinese cabbage leaves (Brassica pekinensis) infested by all stages of the green peach aphid (Myzus persicae) are sprayed with an active ingredient formulation of the desired concentration.\nAfter 6 days, efficacy in % is determined. 100% means that all the aphids have been killed; 0% means that none of the aphids have been killed."}, "Lucilia cuprina": {"system": "Lucilia cuprina", "assay": "Lucilia cuprina test", "type": "in vivo", "conditions": "Lucilia cuprina, 48 h; application rate 100 ppm; L1 larvae in minced horsemeat; kill after 2 days; read-out: efficacy", "procedure,_shortened": "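Mortality (%) of first-instar blowfly larvae, about 20 per vessel, recorded 2 days after exposure to compound-treated minced horsemeat. Compound dissolved in dimethyl sulphoxide, then water-diluted to the desired concentration.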"}, "Amblyomma hebraeum": {"system": "Amblyomma hebraeum", "assay": "Amblyomma hebraeum test (tick nymphs, immersion)", "type": "in vivo", "conditions": "application rate 100 ppm; tick nymphs immersed for one minute; kill after 42 days", "procedure,_shortened": "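Mortality (%) is read 42 days post-treatment, where 0% means no ticks and 100% all ticks killed. Nymphs were dipped for 1 min into the test dilution (DMSO stock diluted with water) and afterwards stored on filter paper under controlled climate.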"}, "Musca domestica": {"system": "Musca domestica", "assay": "Musca domestica test", "type": "in vivo", "conditions": "application rate 100 ppm; adult houseflies; kill after 2 days", "procedure,_shortened": "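10 adult flies per vessel; sugar-solution sponge dosed with active ingredient formulation (DMSO concentrate diluted in water to desired concentration). Read-out: % kill at 2 days.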"}, "Rhipicephalus sanguineus": {"system": "Rhipicephalus sanguineus", "assay": "Rhipicephalus sanguineus - in vitro contact tests with adult brown dog ticks", "type": "in vivo", "conditions": "application rate 5 μg/cm^2, after 48 h (dead or moribund)", "procedure,_shortened": "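Test compound was dissolved in acetone p.a. (9 mg in 1 ml, then diluted), and 250 μl were spread evenly over the inner surface of 25 ml test tubes on an orbital shaker at 30 rpm for 2 h. Once the solvent evaporated, 5-10 adult Rhipicephalus sanguineus ticks were sealed in, kept dark at room temperature, and after 48 h placed on a 45-50° C. hotplate to score dead or moribund ticks.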"}, "Ctenocephalides felis [3]": {"system": "Ctenocephalides felis", "assay": "Ctenocephalides felis - in vitro contact tests with adult cat fleas", "type": "in vivo", "conditions": "application rate 5 μg/cm^2 (=500 g/ha), after 48 h (dead or moribund)", "procedure,_shortened": "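Efficacy, as share of dead or moribund adult Ctenocephalides felis, read 48 h after placing 5-10 fleas in tubes coated by acetone solution (5 μg/cm^2 at 900 ppm). Incubation horizontal at room temperature, ambient humidity; immobile or uncoordinated fleas scored.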"}},
  "note": "Like-named read-outs stand apart in the source and are kept apart here.",
  "data": [
    {"smiles": "Cc1cc(C(F)(C(F)(F)F)C(F)(F)F)cc(C)c1-n1cc(-c2ccc(Cl)c(C(=O)NC3CC3)c2)cn1", "note": "[I-T3-1, 2-chloro-N-cyclopropyl-5-[1-[2,6-dimethyl-4-[1,2,2,2-tetrafluoro-1-(trifluoromethyl)ethyl]phenyl]pyrazol-4-yl]benzamide]", "values": [
      {"measurement": "pest or weed control at 100 ppm", "setting": "Ctenocephalides felis [1]", "result": 100, "unit": "%"},
      {"measurement": "pest or weed control at 100 g/ha", "setting": "Tetranychus urticae", "result": 100, "unit": "%"},
      {"measurement": "chromatographic logP", "setting": "[2]; reversed-phase HPLC column (C18), HPLC, reversed-phase C18, acetonitrile/water with formic acid, 55° C., read-out: logP", "result": 4.36},
      {"measurement": "chromatographic logP", "setting": "[2]; reversed-phase HPLC column (C18), HPLC-MS method a), Table I-T3; read-out: logP^a)", "result": 4.4},
      {"measurement": "chromatographic logP", "setting": "[2]; reversed-phase HPLC column (C18), HPLC-MS method a); read-out: logP^a)", "result": 4.4},
      {"measurement": "efficacy", "setting": "Myzus persicae", "result": 100, "unit": "%"},
      {"measurement": "pest or weed control at 100 ppm", "setting": "Lucilia cuprina", "result": 100, "unit": "%"},
      {"measurement": "efficacy", "setting": "Amblyomma hebraeum", "result": 100, "unit": "%"},
      {"measurement": "efficacy", "setting": "Musca domestica", "result": 100, "unit": "%"},
      {"measurement": "efficacy", "setting": "Rhipicephalus sanguineus", "result": 100, "unit": "%"},
      {"measurement": "efficacy", "setting": "Ctenocephalides felis [3]", "result": 100, "unit": "%"}
    ]}
  ]
}
